Experimental data as given in ChEMBL document CHEMBL1150937, “Aeruginosin 103-A, a thrombin inhibitor from the cyanobacterium Microcystis viridis” (J Nat Prod, 1998).
pIC50: −log10 of the molar value. Values after ≈ are worked out from the molar mass of the structure shown.

How the values were obtained:
Plasminogen = Plasminogen (Homo sapiens, UniProt P00747); test: Inhibition of plasmin
[1] = Inhibition of trypsin
Prothrombin = Prothrombin (Homo sapiens, UniProt P00734); test: Inhibition of thrombin

Chain of Plasminogen (P00747 97-580 limits assumed): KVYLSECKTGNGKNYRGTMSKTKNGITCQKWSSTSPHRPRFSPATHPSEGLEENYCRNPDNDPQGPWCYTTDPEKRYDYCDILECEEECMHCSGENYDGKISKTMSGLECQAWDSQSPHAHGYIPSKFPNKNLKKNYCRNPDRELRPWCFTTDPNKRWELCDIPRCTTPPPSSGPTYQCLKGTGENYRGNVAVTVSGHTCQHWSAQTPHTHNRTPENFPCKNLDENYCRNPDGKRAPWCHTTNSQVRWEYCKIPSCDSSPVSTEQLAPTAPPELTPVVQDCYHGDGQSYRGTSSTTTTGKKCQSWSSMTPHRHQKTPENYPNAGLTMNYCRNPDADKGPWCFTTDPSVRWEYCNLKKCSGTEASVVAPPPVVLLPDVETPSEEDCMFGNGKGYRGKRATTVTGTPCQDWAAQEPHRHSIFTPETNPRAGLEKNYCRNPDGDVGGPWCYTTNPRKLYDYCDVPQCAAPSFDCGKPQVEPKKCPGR
Chain of Plasminogen (P00747 581-810 limits assumed): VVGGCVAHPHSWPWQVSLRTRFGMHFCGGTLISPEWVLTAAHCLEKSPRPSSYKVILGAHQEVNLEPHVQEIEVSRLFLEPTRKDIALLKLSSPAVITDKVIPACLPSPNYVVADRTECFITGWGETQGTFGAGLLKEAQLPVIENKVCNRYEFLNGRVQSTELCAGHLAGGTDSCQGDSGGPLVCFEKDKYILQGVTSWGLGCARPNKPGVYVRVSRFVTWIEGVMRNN

pIC50 (Plasminogen): 4.00 | IC50 [1]: 51 µg/mL (≈ 74.9 µM) | pIC50 (Prothrombin): 4.88
SMILES: CCO[C@@H]1[C@@H](NC(=O)C2CC3CCC(O)CC3N2C(=O)[C@@H](Cc2ccc(O)cc2)NC(=O)[C@H](O)Cc2ccc(O)cc2)CCCN1C(=N)N (stereo partly drawn)
